Columns and labels:
ACVR1B = target: T1, ACVR1B (Homo sapiens, UniProt P36896); assay: KINOMEscan; type: binding; details: read-out: Percent Control
T1 construct: purchased Eurofins DiscoverX KINOMEscan (scanMAX 468)

ASK1 = target: T2, ASK1 (Homo sapiens, UniProt Q99683); assay: KINOMEscan; type: binding; details: read-out: Percent Control
T2 construct: purchased Eurofins DiscoverX KINOMEscan (scanMAX 468)

BMX = target: T3, BMX (Homo sapiens, UniProt P51813); assay: KINOMEscan; type: binding; details: read-out: Percent Control
T3 construct: purchased Eurofins DiscoverX KINOMEscan (scanMAX 468)

CAMK2G = target: T4, CAMK2G (Homo sapiens, UniProt Q13555); assay: KINOMEscan; type: binding; details: read-out: Percent Control
T4 construct: purchased Eurofins DiscoverX KINOMEscan (scanMAX 468)

CAMK4 = target: T5, CAMK4 (Homo sapiens, UniProt Q16566); assay: KINOMEscan; type: binding; details: read-out: Percent Control
T5 construct: purchased Eurofins DiscoverX KINOMEscan (scanMAX 468)

CAMKK1 = target: T6, CAMKK1 (Homo sapiens, UniProt Q8N5S9); assay: KINOMEscan; type: binding; details: read-out: Percent Control
T6 construct: purchased Eurofins DiscoverX KINOMEscan (scanMAX 468)

CDC2L1 = target: T7, CDC2L1 (Homo sapiens, UniProt P21127); assay: KINOMEscan; type: binding; details: read-out: Percent Control
T7 construct: purchased Eurofins DiscoverX KINOMEscan (scanMAX 468)

CDC2L2 = target: T8, CDC2L2 (Homo sapiens, UniProt Q9UQ88); assay: KINOMEscan; type: binding; details: read-out: Percent Control
T8 construct: purchased Eurofins DiscoverX KINOMEscan (scanMAX 468)

CIT = target: T9, CIT (Homo sapiens, UniProt O14578); assay: KINOMEscan; type: binding; details: read-out: Percent Control
T9 construct: purchased Eurofins DiscoverX KINOMEscan (scanMAX 468)

EPHA2 = target: T10, EPHA2 (Homo sapiens, UniProt P29317); assay: KINOMEscan; type: binding; details: read-out: Percent Control
T10 construct: purchased Eurofins DiscoverX KINOMEscan (scanMAX 468)

EPHA7 = target: T11, EPHA7 (Homo sapiens, UniProt Q15375); assay: KINOMEscan; type: binding; details: read-out: Percent Control
T11 construct: purchased Eurofins DiscoverX KINOMEscan (scanMAX 468)

EPHB3 = target: T12, EPHB3 (Homo sapiens, UniProt P54753); assay: KINOMEscan; type: binding; details: read-out: Percent Control
T12 construct: purchased Eurofins DiscoverX KINOMEscan (scanMAX 468)

ERK1 = target: T13, ERK1 (Homo sapiens, UniProt P27361); assay: KINOMEscan; type: binding; details: read-out: Percent Control
T13 construct: purchased Eurofins DiscoverX KINOMEscan (scanMAX 468)

FGFR3(G697C) = target: T14, FGFR3(G697C) (Homo sapiens, UniProt P22607, G697C); assay: KINOMEscan; type: binding; details: read-out: Percent Control
T14 construct: purchased Eurofins DiscoverX KINOMEscan (scanMAX 468)

FLT3(ITD,D835V) = assay: KINOMEscan; type: binding, human; details: 1 μM
FLT3(ITD,F691L) = assay: KINOMEscan; type: binding, human; details: 1 μM
FLT3(R834Q) = target: T15, FLT3(R834Q) (Homo sapiens, UniProt P36888, R834Q); assay: KINOMEscan; type: binding; details: read-out: Percent Control
T15 construct: purchased Eurofins DiscoverX KINOMEscan (scanMAX 468)

FRK = target: T16, FRK (Homo sapiens, UniProt P42685); assay: KINOMEscan; type: binding; details: read-out: Percent Control
T16 construct: purchased Eurofins DiscoverX KINOMEscan (scanMAX 468)

GRK1 = target: T17, GRK1 (Homo sapiens, UniProt Q15835); assay: KINOMEscan; type: binding; details: read-out: Percent Control
T17 construct: purchased Eurofins DiscoverX KINOMEscan (scanMAX 468)

JNK2 = target: T18, JNK2 (Homo sapiens, UniProt P45984); assay: KINOMEscan; type: binding; details: read-out: Percent Control
T18 construct: purchased Eurofins DiscoverX KINOMEscan (scanMAX 468)

JNK3 = target: T19, JNK3 (Homo sapiens, UniProt P53779); assay: KINOMEscan; type: binding; details: read-out: Percent Control
T19 construct: purchased Eurofins DiscoverX KINOMEscan (scanMAX 468)

KIT(V559D,T670I) = target: T20, KIT(V559D,T670I) (Homo sapiens, UniProt P10721, T670I/V559D); assay: KINOMEscan; type: binding; details: read-out: Percent Control
T20 construct: purchased Eurofins DiscoverX KINOMEscan (scanMAX 468)

LCK = target: T21, LCK (Homo sapiens, UniProt P06239); assay: KINOMEscan; type: binding; details: read-out: Percent Control
T21 construct: purchased Eurofins DiscoverX KINOMEscan (scanMAX 468)

LIMK2 = target: T22, LIMK2 (Homo sapiens, UniProt P53671); assay: KINOMEscan; type: binding; details: read-out: Percent Control
T22 construct: purchased Eurofins DiscoverX KINOMEscan (scanMAX 468)

MYO3A = target: T23, MYO3A (Homo sapiens, UniProt Q8NEV4); assay: KINOMEscan; type: binding; details: read-out: Percent Control
T23 construct: purchased Eurofins DiscoverX KINOMEscan (scanMAX 468)

NDR2 = target: T24, NDR2 (Homo sapiens, UniProt Q9Y2H1); assay: KINOMEscan; type: binding; details: read-out: Percent Control
T24 construct: purchased Eurofins DiscoverX KINOMEscan (scanMAX 468)

NEK7 = target: T25, NEK7 (Homo sapiens, UniProt Q8TDX7); assay: KINOMEscan; type: binding; details: read-out: Percent Control
T25 construct: purchased Eurofins DiscoverX KINOMEscan (scanMAX 468)

PIK3CA(E542K) = target: T26, PIK3CA(E542K) (Homo sapiens, UniProt P42336, E542K); assay: KINOMEscan; type: binding; details: read-out: Percent Control
T26 construct: purchased Eurofins DiscoverX KINOMEscan (scanMAX 468)

PIK3CA(M1043I) = target: T27, PIK3CA(M1043I) (Homo sapiens, UniProt P42336, M1043I); assay: KINOMEscan; type: binding; details: read-out: Percent Control
T27 construct: purchased Eurofins DiscoverX KINOMEscan (scanMAX 468)

PIKFYVE = target: T28, PIKFYVE (Homo sapiens, UniProt Q9Y2I7); assay: KINOMEscan; type: binding; details: read-out: Percent Control
T28 construct: purchased Eurofins DiscoverX KINOMEscan (scanMAX 468)

RET = target: T29, RET (Homo sapiens, UniProt P07949); assay: KINOMEscan; type: binding; details: read-out: Percent Control
T29 construct: purchased Eurofins DiscoverX KINOMEscan (scanMAX 468)

[1] = target: T30, RSK2(Kin.Dom.1-N-terminal) (Homo sapiens, UniProt P51812); assay: KINOMEscan; type: binding; details: read-out: Percent Control
T30 construct: RSK2(Kin.Dom.1-N-terminal); purchased Eurofins DiscoverX KINOMEscan (scanMAX 468)

[2] = target: T31, RSK3(Kin.Dom.1-N-terminal) (Homo sapiens, UniProt Q15349); assay: KINOMEscan; type: binding; details: read-out: Percent Control
T31 construct: RSK3(Kin.Dom.1-N-terminal); purchased Eurofins DiscoverX KINOMEscan (scanMAX 468)

SIK = target: T32, SIK (Homo sapiens, UniProt P57059); assay: KINOMEscan; type: binding; details: read-out: Percent Control
T32 construct: purchased Eurofins DiscoverX KINOMEscan (scanMAX 468)

SIK2 = target: T33, SIK2 (Homo sapiens, UniProt Q9H0K1); assay: KINOMEscan; type: binding; details: read-out: Percent Control
T33 construct: purchased Eurofins DiscoverX KINOMEscan (scanMAX 468)

TGFBR2 = target: T34, TGFBR2 (Homo sapiens, UniProt P37173); assay: KINOMEscan; type: binding; details: read-out: Percent Control
T34 construct: purchased Eurofins DiscoverX KINOMEscan (scanMAX 468)

TIE1 = target: T35, TIE1 (Homo sapiens, UniProt P35590); assay: KINOMEscan; type: binding; details: read-out: Percent Control
T35 construct: purchased Eurofins DiscoverX KINOMEscan (scanMAX 468)

TIE2 = target: T36, TIE2 (Homo sapiens, UniProt Q02763); assay: KINOMEscan; type: binding; details: read-out: Percent Control
T36 construct: purchased Eurofins DiscoverX KINOMEscan (scanMAX 468)

VEGFR2 = target: T37, VEGFR2 (Homo sapiens, UniProt P35968); assay: KINOMEscan; type: binding; details: read-out: Percent Control
T37 construct: purchased Eurofins DiscoverX KINOMEscan (scanMAX 468)

WEE1 = target: T38, WEE1 (Homo sapiens, UniProt P30291); assay: KINOMEscan; type: binding; details: read-out: Percent Control
T38 construct: purchased Eurofins DiscoverX KINOMEscan (scanMAX 468)

MDA-MB-231 = test system: MDA-MB-231; parameters: method as in ref 14 (a number printed in a supplementary file, which may have a reference list of its own: not looked up in the article's list); details: DB18[a], footnote not given; read-out: Cytotoxic studies IC50 MDA-MB-231; cited from earlier work

T38 sequence (P30291 whole entry): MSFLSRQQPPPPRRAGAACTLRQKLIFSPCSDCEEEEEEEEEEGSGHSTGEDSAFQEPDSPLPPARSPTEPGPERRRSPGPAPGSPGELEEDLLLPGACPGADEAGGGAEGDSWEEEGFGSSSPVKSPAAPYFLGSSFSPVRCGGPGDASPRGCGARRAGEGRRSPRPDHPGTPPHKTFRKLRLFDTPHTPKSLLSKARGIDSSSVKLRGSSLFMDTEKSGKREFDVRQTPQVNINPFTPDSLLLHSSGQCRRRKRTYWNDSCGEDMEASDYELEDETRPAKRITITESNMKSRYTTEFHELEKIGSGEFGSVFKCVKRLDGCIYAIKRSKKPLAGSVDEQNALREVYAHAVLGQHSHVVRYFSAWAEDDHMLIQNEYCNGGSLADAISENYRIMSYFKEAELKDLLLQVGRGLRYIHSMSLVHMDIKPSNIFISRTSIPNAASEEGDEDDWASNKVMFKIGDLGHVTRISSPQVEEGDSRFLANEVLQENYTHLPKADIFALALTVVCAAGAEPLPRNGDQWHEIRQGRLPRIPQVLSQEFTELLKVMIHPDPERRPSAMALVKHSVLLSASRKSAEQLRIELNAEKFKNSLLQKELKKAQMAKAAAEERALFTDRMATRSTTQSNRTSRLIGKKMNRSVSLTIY
T5 sequence (Q16566 whole entry): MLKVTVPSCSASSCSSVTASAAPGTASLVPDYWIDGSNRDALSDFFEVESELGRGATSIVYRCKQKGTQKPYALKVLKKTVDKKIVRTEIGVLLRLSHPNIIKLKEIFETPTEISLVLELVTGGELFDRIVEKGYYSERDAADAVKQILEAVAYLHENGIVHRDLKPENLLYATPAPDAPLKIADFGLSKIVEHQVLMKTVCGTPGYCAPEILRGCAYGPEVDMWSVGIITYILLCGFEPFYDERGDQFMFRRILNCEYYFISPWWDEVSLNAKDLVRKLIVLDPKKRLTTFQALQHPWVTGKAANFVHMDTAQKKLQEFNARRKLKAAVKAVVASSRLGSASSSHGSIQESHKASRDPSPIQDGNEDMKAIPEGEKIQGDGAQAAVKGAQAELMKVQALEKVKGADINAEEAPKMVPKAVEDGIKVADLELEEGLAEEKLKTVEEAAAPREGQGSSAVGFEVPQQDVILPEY
T23 sequence (Q8NEV4 whole entry): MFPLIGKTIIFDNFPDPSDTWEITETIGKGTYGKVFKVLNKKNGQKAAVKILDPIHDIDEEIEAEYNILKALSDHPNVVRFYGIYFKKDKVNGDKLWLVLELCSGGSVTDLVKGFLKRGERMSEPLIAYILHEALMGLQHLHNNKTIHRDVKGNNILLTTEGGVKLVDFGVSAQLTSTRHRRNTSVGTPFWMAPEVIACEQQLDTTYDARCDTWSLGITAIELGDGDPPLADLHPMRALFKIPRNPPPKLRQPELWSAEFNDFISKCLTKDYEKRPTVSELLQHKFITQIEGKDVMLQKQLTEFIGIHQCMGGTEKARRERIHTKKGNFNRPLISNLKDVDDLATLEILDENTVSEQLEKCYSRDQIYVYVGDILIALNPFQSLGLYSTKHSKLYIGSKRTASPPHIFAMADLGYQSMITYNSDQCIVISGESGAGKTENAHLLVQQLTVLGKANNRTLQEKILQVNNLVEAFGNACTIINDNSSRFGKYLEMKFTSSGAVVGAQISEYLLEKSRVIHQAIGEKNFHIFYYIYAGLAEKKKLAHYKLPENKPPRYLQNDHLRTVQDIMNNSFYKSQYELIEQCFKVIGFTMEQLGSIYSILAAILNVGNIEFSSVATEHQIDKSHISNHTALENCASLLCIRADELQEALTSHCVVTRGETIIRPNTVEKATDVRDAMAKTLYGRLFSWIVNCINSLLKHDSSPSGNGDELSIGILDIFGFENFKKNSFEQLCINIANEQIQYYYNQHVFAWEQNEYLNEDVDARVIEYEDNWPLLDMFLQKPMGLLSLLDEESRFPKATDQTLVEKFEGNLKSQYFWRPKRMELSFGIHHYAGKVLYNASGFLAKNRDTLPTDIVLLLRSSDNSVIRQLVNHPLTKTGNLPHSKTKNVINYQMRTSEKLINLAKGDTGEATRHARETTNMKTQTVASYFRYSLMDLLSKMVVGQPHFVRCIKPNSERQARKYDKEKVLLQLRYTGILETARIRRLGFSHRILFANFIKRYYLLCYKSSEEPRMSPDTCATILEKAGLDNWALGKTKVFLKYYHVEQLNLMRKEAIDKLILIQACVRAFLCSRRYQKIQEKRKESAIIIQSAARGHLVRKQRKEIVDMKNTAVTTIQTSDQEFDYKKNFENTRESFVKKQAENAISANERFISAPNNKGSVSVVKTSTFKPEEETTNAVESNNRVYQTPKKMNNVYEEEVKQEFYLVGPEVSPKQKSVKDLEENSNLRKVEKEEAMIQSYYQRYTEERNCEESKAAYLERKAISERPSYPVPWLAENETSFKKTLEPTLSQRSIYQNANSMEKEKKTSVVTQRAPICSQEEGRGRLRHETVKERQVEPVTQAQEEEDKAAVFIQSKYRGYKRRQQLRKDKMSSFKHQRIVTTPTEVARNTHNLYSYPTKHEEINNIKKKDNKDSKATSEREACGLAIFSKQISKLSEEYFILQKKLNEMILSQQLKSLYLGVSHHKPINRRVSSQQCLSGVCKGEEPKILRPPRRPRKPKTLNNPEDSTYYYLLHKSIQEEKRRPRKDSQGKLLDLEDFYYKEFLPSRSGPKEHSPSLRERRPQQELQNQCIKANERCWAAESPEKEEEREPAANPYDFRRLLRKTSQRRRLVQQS
T4 sequence (Q13555 whole entry): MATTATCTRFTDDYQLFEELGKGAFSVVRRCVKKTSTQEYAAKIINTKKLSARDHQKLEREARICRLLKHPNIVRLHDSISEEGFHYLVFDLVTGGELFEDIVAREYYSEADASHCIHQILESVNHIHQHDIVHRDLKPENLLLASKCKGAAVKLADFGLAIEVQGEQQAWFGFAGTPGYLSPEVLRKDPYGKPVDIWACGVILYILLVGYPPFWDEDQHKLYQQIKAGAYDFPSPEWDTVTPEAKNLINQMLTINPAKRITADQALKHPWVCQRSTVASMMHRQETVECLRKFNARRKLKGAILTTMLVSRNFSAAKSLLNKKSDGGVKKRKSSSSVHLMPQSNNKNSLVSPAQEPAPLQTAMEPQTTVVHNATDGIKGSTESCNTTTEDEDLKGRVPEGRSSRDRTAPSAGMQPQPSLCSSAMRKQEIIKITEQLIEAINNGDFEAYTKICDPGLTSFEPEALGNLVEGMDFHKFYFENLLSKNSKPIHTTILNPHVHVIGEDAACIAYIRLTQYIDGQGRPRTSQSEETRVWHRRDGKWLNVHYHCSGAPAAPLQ
T10 sequence (P29317 24-976): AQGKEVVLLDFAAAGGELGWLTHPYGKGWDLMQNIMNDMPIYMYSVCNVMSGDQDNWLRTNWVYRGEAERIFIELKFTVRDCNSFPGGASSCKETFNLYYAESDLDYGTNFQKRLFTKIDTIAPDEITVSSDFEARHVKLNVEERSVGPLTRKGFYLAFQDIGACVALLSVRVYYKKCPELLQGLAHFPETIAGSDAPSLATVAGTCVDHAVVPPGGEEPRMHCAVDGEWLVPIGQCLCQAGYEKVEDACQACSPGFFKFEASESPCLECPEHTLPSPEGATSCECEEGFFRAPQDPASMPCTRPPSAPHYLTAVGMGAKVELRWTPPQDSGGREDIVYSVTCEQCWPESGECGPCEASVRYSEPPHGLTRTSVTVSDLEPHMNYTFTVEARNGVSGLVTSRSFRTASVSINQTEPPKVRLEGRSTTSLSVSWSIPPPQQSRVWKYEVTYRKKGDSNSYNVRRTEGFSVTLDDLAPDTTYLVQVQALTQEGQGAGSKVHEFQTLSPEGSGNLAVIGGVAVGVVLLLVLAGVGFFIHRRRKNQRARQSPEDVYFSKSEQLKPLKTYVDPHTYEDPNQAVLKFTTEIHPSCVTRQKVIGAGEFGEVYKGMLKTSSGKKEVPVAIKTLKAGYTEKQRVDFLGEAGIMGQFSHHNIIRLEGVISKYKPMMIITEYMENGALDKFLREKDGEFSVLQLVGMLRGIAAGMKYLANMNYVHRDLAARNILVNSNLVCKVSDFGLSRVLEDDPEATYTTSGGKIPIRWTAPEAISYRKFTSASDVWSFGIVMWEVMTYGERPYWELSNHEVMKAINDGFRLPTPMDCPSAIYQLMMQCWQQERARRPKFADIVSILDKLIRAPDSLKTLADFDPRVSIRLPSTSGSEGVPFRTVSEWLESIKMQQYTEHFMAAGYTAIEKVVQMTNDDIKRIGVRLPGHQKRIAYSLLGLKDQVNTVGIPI
T16 sequence (P42685 whole entry): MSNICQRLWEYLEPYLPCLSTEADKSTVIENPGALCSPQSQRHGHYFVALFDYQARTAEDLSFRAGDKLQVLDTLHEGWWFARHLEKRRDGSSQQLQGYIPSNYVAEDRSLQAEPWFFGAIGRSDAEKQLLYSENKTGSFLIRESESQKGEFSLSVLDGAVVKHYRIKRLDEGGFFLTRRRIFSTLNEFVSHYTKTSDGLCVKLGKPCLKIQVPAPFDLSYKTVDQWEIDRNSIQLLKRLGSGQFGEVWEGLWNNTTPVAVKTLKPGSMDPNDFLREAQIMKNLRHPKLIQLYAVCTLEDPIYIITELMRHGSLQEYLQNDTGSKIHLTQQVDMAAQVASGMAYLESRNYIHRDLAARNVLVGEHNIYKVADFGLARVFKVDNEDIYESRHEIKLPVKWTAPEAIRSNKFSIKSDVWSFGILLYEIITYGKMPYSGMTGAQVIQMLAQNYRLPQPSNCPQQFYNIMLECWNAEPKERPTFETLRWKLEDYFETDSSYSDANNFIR
T25 sequence (Q8TDX7 whole entry): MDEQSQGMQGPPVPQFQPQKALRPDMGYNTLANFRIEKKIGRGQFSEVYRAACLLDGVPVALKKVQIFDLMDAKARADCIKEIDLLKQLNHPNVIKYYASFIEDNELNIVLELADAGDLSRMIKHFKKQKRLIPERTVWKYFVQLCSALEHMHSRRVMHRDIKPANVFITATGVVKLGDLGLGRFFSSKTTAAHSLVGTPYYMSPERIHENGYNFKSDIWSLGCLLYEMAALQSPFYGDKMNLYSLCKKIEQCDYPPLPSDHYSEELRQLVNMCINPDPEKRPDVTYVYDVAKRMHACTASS

Cc1ccc(-n2cc(COc3cccc4cnc(Nc5cccc(Cl)c5)nc34)nn2)c([N+](=O)[O-])c1 [DB18]
remaining binding at 1 µM (ACVR1B): 88%
remaining binding at 1 µM (ASK1): 100%
remaining binding at 1 µM (BMX): 100%
remaining binding at 1 µM (CAMK2G): 100%
remaining binding at 1 µM (CAMK4): 100%
remaining binding at 1 µM (CAMKK1): 100%
remaining binding at 1 µM (CDC2L1): 100%
remaining binding at 1 µM (CDC2L2): 100%
remaining binding at 1 µM (CIT): 100%
remaining binding at 1 µM (EPHA2): 100%
remaining binding at 1 µM (EPHA7): 100%
remaining binding at 1 µM (EPHB3): 100%
remaining binding at 1 µM (ERK1): 100%
remaining binding at 1 µM (FGFR3(G697C)): 97%
Percent Control (FLT3(ITD,D835V)): 53 % Ctrl
Percent Control (FLT3(ITD,F691L)): 94 % Ctrl
remaining binding at 1 µM (FLT3(R834Q)): 87%
remaining binding at 1 µM (FRK): 83%
remaining binding at 1 µM (GRK1): 97%
remaining binding at 1 µM (JNK2): 96%
remaining binding at 1 µM (JNK3): 95%
remaining binding at 1 µM (KIT(V559D,T670I)): 96%
remaining binding at 1 µM (LCK): 100%
remaining binding at 1 µM (LIMK2): 100%
remaining binding at 1 µM (MYO3A): 100%
remaining binding at 1 µM (NDR2): 95%
remaining binding at 1 µM (NEK7): 85%
remaining binding at 1 µM (PIK3CA(E542K)): 80%
remaining binding at 1 µM (PIK3CA(M1043I)): 100%
remaining binding at 1 µM (PIKFYVE): 61%
remaining binding at 1 µM (RET): 92%
remaining binding at 1 µM [1]: 100%
remaining binding at 1 µM [2]: 100%
remaining binding at 1 µM (SIK): 95%
remaining binding at 1 µM (SIK2): 100%
remaining binding at 1 µM (TGFBR2): 100%
remaining binding at 1 µM (TIE1): 100%
remaining binding at 1 µM (TIE2): 100%
remaining binding at 1 µM (VEGFR2): 99%
remaining binding at 1 µM (WEE1): 100%
IC50 (MDA-MB-231): > 25 µM

Source: article PMC9571063 (Molecules, 2022)
